From PubChem BioAssay AID1919009 (Molecular Pharmacology Branch, DTP, NCI, 2023)

System: K24384-001-R-PDC complex spheroid growth
Experiment: Anticancer human tumor K24384-001-R-PDC patient-derived pancreatic adenocarcinoma cell line growth inhibition [AhR]
Details: for IC50: curve of first compound; for viability, T/C: stronger effect = lower value
Procedure, shortened: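 Spheroids combined tumor cells with HUVEC endothelial cells and human MSCs as stroma. AhR antagonists were paired with standard or investigational drugs, each dosed in half-log steps down from near clinical Cmax, or from 10 microM where Cmax was unknown.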

[1] = second compound 0.1 µM, first compound 0.00316 µM
[2] = second compound 0.1 µM, first compound 0.01 µM
[3] = second compound 0.1 µM, first compound 0.0316 µM
[4] = second compound 0.1 µM, first compound 0.1 µM
[5] = second compound 0.316 µM, first compound 0.00316 µM
[6] = second compound 0.316 µM, first compound 0.01 µM
[7] = second compound 0.316 µM, first compound 0.0316 µM
[8] = second compound 0.316 µM, first compound 0.1 µM
[9] = second compound 1 µM, first compound 0.00316 µM
[10] = second compound 1 µM, first compound 0.01 µM
[11] = second compound 1 µM, first compound 0.0316 µM
[12] = second compound 1 µM, first compound 0.1 µM
[13] = second compound 3.16 µM, first compound 0.00316 µM
[14] = second compound 3.16 µM, first compound 0.01 µM
[15] = second compound 3.16 µM, first compound 0.0316 µM
[16] = second compound 3.16 µM, first compound 0.1 µM
[17] = second compound 10 µM, first compound 0.00316 µM
[18] = second compound 10 µM, first compound 0.01 µM
[19] = second compound 10 µM, first compound 0.0316 µM
[20] = second compound 10 µM, first compound 0.1 µM
[21] = second compound 0.1 µM, first compound 0.316 µM
[22] = second compound 0.1 µM, first compound 1 µM
[23] = second compound 0.316 µM, first compound 0.316 µM
[24] = second compound 0.316 µM, first compound 1 µM
[25] = second compound 1 µM, first compound 0.316 µM
[26] = second compound 1 µM, first compound 1 µM
[27] = second compound 3.16 µM, first compound 0.316 µM
[28] = second compound 3.16 µM, first compound 1 µM
[29] = second compound 10 µM, first compound 0.316 µM
[30] = second compound 10 µM, first compound 1 µM
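For viability, T/C in this document: percent of DMSO vehicle-treated spheroid viability set as 100%.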

SMILES | IC50 (second compound 0.1 µM) [nM] | IC50 (second compound 0.316 µM) [nM] | IC50 (second compound 1 µM) [nM] | IC50 (second compound 3.16 µM) [nM] | IC50 (second compound 10 µM) [nM] | viability, T/C [1] [%] | viability, T/C [2] [%] | viability, T/C [3] [%] | viability, T/C [4] [%] | viability, T/C [5] [%] | viability, T/C [6] [%] | viability, T/C [7] [%] | viability, T/C [8] [%] | viability, T/C [9] [%] | viability, T/C [11] [%] | viability, T/C [12] [%] | viability, T/C [15] [%] | viability, T/C [16] [%] | viability, T/C [19] [%] | viability, T/C [20] [%] | other results
CC[C@@]1(O)C(=O)OCc2c1cc1n(c2=O)Cc2cc3c(CN(C)C)c(O)ccc3nc2-1 + Cc1ccccc1N=Nc1ccc(NC(=O)c2ccnn2C)c(C)c1 | 28.1 | 24.5 | 28.4 | 19.6 | 30.7 | 95.4 | 72.2 | 48.5 | 44.9 | 98.6 | 70.5 | 46.9 | 39.6 | 94.7 | 50.2 | 38.4 | 38.3 | 39.1 | 51.5 | 47.4 | viability, T/C (second compound 0.1 µM, first compound 0.000316 µM): 93.4%; viability, T/C (second compound 0.1 µM, first compound 0.001 µM): 96.2%; viability, T/C (second compound 0.316 µM, first compound 0.000316 µM): 97.3%; viability, T/C (second compound 0.316 µM, first compound 0.001 µM): 90.7%; viability, T/C (second compound 1 µM, first compound 0.000316 µM): 101%; viability, T/C (second compound 1 µM, first compound 0.001 µM): 94.1%; viability, T/C [10]: 67.8%; viability, T/C (second compound 3.16 µM, first compound 0.000316 µM): 87.3%; viability, T/C (second compound 3.16 µM, first compound 0.001 µM): 99.8%; viability, T/C [13]: 92.5%; viability, T/C [14]: 65.8%; viability, T/C (second compound 10 µM, first compound 0.000316 µM): 111%; viability, T/C (second compound 10 µM, first compound 0.001 µM): 101%; viability, T/C [17]: 109%; viability, T/C [18]: 68.7%
COc1cc(C2c3cc4c(cc3C(OC3OC5COC(C)OC5C(O)C3O)C3COC(=O)C23)OCO4)cc(OC)c1O (stereo not given) + Cc1ccccc1N=Nc1ccc(NC(=O)c2ccnn2C)c(C)c1 | 955 | 1090 | 830 | 969 | 2730 |  |  | 97.7 | 96.3 |  |  | 104 | 92.5 |  | 102 | 101 | 78.3 | 89.1 | 102 | 98.5 | viability, T/C [21]: 77.9%; viability, T/C [22]: 49.6%; viability, T/C (second compound 0.1 µM, first compound 3.16 µM): 35.2%; viability, T/C (second compound 0.1 µM, first compound 10 µM): 35.6%; viability, T/C [23]: 66.3%; viability, T/C [24]: 55.2%; viability, T/C (second compound 0.316 µM, first compound 3.16 µM): 36.5%; viability, T/C (second compound 0.316 µM, first compound 10 µM): 38.7%; viability, T/C [25]: 83.1%; viability, T/C [26]: 43.6%; viability, T/C (second compound 1 µM, first compound 3.16 µM): 33.9%; viability, T/C (second compound 1 µM, first compound 10 µM): 31.7%; viability, T/C [27]: 64.4%; viability, T/C [28]: 51.6%; viability, T/C (second compound 3.16 µM, first compound 3.16 µM): 39.7%; viability, T/C (second compound 3.16 µM, first compound 10 µM): 35.5%; viability, T/C [29]: 88.6%; viability, T/C [30]: 63.9%; viability, T/C (second compound 10 µM, first compound 3.16 µM): 46.2%; viability, T/C (second compound 10 µM, first compound 10 µM): 46.4%
Nc1ncn(C2CC(O)C(CO)O2)c(=O)n1 (stereo not given) + Cc1ccccc1N=Nc1ccc(NC(=O)c2ccnn2C)c(C)c1 | > 1000 | > 1000 | > 1000 | > 1000 | > 1000 | 108 | 114 | 90.2 | 79.4 | 102 | 112 | 100 | 103 | 103 | 90 | 89.5 | 83.5 | 68.9 | 97.7 | 79 | viability, T/C [21]: 87.5%; viability, T/C [22]: 68.8%; viability, T/C [23]: 80.6%; viability, T/C [24]: 71.4%; viability, T/C [10]: 99.2%; viability, T/C [25]: 73.2%; viability, T/C [26]: 66.9%; viability, T/C [13]: 89.4%; viability, T/C [14]: 85.7%; viability, T/C [27]: 64.9%; viability, T/C [28]: 57.5%; viability, T/C [17]: 93.6%; viability, T/C [18]: 95.1%; viability, T/C [29]: 66.7%; viability, T/C [30]: 58.1%
